Measurements from article PMC6857051, “Proliferative regulation of alveolar epithelial type 2 progenitor cells by human Scnn1d gene” (Theranostics, 2019).
Like-named read-outs stand apart in the source and are kept apart here.

Target: T1, human δ802βγ ENaC (Homo sapiens, UniProt P51168+P51170+P51172)
T1 construct: Bioelectric features of full-length human δ802 epithelial sodium channels (ENaC) in Xenopus oocytes; expressed in transfected cells; host or cells: Xenopus laevis oocytes injected with cRNA (pGEM HE vector)
T1 sequence (P51172 1-802): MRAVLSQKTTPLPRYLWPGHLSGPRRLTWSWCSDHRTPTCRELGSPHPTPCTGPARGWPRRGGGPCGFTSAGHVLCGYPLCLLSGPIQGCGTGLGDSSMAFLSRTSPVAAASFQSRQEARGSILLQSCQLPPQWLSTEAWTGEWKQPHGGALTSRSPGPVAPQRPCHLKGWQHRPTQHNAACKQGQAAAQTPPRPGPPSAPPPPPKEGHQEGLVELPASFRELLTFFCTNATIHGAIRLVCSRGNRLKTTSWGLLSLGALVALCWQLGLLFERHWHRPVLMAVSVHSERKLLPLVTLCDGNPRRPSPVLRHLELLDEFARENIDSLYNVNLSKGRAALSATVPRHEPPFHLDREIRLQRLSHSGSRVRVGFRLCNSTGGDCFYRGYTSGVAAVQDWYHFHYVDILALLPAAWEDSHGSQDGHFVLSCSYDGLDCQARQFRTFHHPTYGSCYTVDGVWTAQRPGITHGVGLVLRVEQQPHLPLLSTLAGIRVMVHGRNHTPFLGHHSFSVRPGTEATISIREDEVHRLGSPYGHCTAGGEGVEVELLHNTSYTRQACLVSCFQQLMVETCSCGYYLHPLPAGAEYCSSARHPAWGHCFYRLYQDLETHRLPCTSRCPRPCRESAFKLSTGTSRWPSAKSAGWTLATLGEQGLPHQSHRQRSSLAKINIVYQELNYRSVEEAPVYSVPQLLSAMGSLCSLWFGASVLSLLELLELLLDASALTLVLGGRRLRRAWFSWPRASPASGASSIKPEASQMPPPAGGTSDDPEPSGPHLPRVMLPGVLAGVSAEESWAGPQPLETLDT
T1 sequence (P51168 1-640): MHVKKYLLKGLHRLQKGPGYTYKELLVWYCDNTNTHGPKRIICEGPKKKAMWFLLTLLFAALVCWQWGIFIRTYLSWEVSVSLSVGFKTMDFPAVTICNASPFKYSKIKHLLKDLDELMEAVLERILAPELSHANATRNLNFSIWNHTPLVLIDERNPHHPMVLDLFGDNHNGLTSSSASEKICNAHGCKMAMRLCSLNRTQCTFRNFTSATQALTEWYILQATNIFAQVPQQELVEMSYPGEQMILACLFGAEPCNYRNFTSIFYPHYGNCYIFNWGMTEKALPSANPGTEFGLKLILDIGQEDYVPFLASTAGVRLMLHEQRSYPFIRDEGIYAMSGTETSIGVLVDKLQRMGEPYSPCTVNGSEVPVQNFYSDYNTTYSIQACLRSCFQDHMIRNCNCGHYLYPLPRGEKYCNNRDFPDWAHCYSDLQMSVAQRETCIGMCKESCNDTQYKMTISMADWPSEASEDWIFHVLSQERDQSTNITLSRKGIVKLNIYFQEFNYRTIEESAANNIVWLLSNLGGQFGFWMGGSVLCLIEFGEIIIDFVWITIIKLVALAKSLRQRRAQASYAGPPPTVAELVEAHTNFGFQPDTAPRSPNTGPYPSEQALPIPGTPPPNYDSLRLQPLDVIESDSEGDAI
T1 sequence (P51170 1-649): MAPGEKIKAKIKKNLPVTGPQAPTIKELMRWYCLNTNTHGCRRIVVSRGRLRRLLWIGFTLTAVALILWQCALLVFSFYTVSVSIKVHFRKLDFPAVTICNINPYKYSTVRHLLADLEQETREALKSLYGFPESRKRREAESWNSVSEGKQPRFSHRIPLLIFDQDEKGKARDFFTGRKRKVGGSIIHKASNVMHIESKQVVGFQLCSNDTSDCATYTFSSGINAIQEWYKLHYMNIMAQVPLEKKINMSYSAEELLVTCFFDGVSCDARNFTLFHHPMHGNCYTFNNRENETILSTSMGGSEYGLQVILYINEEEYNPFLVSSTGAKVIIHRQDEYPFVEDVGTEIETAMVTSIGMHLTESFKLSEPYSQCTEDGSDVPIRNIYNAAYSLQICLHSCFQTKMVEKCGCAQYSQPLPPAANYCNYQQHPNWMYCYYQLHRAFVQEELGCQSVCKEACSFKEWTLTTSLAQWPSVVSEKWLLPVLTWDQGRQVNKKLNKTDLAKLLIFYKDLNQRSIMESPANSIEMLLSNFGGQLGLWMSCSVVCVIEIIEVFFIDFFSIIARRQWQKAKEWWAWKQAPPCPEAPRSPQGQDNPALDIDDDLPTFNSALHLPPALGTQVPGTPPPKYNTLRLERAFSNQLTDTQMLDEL
Experiment: Two-electrode voltage clamp of δ802βγ-ENaC expressed in Xenopus oocytes
Assay type: cell-based
Description: Cloning, in vitro transcription, and heterologous expression of δ802 ENaC and two-electrode voltage clamping assay. δ802 and other ENaC subunits were generated in human ENaC cDNAs cloned into a pGEM HE vector [4], [76]. cRNAs of human α, β, and γ ENaC were prepared as described previously. The stoichiometry of native ENaC complexes is unclear to date. Based on the studies in the last decade, several models have been proposed for αβγ ENaC channels: 1α1β1γ, 2α1β1γ, 3α3β3γ. Based on the EM structure of human αβγ ENaC [35], the currently acceptable model of human αβγ ENaC complexes is heterotrimeric (1α1β1γ). Thus we microinjected δ802:β:γ in a 1:1:1 subunit ratio. Oocytes were surgically removed from appropriately anesthetized adult female Xenopus laevis (Xenopus Express). Briefly, the ovarian tissue was removed from the frog under anesthesia by tricaine-S (Western Chemicals) through a small incision in the lower abdomen. Ovarian lobes were removed and digested in OR-2 calcium-free medium (in mM: 82.5 NaCl, 2.5 KCl, 1.0 MgCl2, 1.0 Na2HPO4, and 10.0 HEPES, pH 7.5) with the addition of 2 mg/ml collagenase (Roche, Indianapolis). Defolliculated oocytes were injected with ENaC cRNAs into the cytosol (25 ng per oocyte in 50 nl of RNase-free water) and incubated in regular OR-2 medium at 18°C. The two-electrode voltage-clamp technique was used to record whole-cell currents 48 h post injection. Oocytes were impaled with two electrodes filled with 3M KCl, having resistance of 0.5 - 2 MΩ. A TEV-200A voltage-clamp amplifier (Dagan) was used to clamp oocytes with concomitant recording of currents. Two reference electrodes were connected to the bath. The continuously perfused bathing solution was ND-96 medium (in mM: 96.0 NaCl, 1.0 MgCl2, 1.8 CaCl2, 2.5 KCl, and 5.0 HEPES, pH 7.5). Whole-cell currents were recorded as previously reported. Experiments were controlled by pCLAMP 10.7 software (Molecular Devices), and currents at -40 mV, -100 mV, and +80 mV were continuously monitored with data recorded at intervals of 10 sec. Data were sampled at the rate of 200 Hz and filtered at 50 Hz.

## N=C(N)NC(=O)c1nc(Cl)c(N)nc1N [amiloride]
Accumulating doses perfused to oocytes expressing δ802βγ-ENaC, n=17, mean ± s.e.m., SEM, read-out: IC50 value, dose-response curve fitted with the Hill equation
  IC50: 1690 ± 300 nM

## Ac-LRGTLPHPLQRLR-NH2 [α-13 peptide]
300 μM, -100 mV, n=5
  effect on δ802βγ-ENaC activity: slightly elevated
oocytes, current at -100 mV, n=3, Chi^2 = 0.77, R^2 = 0.86, legend prints δ802βγ, read-out: IC50, dotted line (for δ802βγ) (Hill equation)
  IC50: 40 ± 70 nM

B1: plasmin: serine protease of the plasmin(ogen) signal pathway for fibrinolysis (protein, UniProt P00747 20-580; P00747 581-810, looked up)
Plasmin heavy chain A: EPLDDYVNTQGASLFSVTKKQLGAGSIEECAAKCEEDEEFTCRAFQYHSKEQQCVIMAENRKSSIIIRMRDVVLFEKKVYLSECKTGNGKNYRGTMSKTKNGITCQKWSSTSPHRPRFSPATHPSEGLEENYCRNPDNDPQGPWCYTTDPEKRYDYCDILECEEECMHCSGENYDGKISKTMSGLECQAWDSQSPHAHGYIPSKFPNKNLKKNYCRNPDRELRPWCFTTDPNKRWELCDIPRCTTPPPSSGPTYQCLKGTGENYRGNVAVTVSGHTCQHWSAQTPHTHNRTPENFPCKNLDENYCRNPDGKRAPWCHTTNSQVRWEYCKIPSCDSSPVSTEQLAPTAPPELTPVVQDCYHGDGQSYRGTSSTTTTGKKCQSWSSMTPHRHQKTPENYPNAGLTMNYCRNPDADKGPWCFTTDPSVRWEYCNLKKCSGTEASVVAPPPVVLLPDVETPSEEDCMFGNGKGYRGKRATTVTGTPCQDWAAQEPHRHSIFTPETNPRAGLEKNYCRNPDGDVGGPWCYTTNPRKLYDYCDVPQCAAPSFDCGKPQVEPKKCPGR
Plasmin light chain B: VVGGCVAHPHSWPWQVSLRTRFGMHFCGGTLISPEWVLTAAHCLEKSPRPSSYKVILGAHQEVNLEPHVQEIEVSRLFLEPTRKDIALLKLSSPAVITDKVIPACLPSPNYVVADRTECFITGWGETQGTFGAGLLKEAQLPVIENKVCNRYEFLNGRVQSTELCAGHLAGGTDSCQGDSGGPLVCFEKDKYILQGVTSWGLGCARPNKPGVYVRVSRFVTWIEGVMRNN
modifications: Plasmin
notes: serine protease of the plasmin(ogen) signal pathway for fibrinolysis
oocytes, -100 mV, tc-uPA 10 μg/ml, time course in minutes
  effect of serine protease incubation on δ802βγ activity: activated the δ802βγ activity in minutes
